The source made the active and inactive calls. No cut-off for these calls is given here.
Columns and labels:
[1] = target: T1, Methionine aminopeptidase 2 (Homo sapiens, UniProt P50579); assay: METAP2 biochemical assay (human)
[2] = target: T1, Methionine aminopeptidase 2; assay: Degradation in HUVEC cells (WB) (Western Blot (WB)); format: functional, cell-based
[3] = target: Serine/threonine-protein kinase haspin (Homo sapiens) (UniProt Q8TF76); assay: Inhibition of Haspin(h) at 10.0 µM in the Eurofins Kinase panel; conditions: Compound concentration 10.0 uM
[4] = target: Serine/threonine-protein kinase pim-2 (Homo sapiens) (UniProt Q9P1W9); assay: Inhibition of Pim-2(h) at 10.0 µM in the Eurofins Kinase panel; conditions: Compound concentration 10.0 uM
[5] = target: Prostaglandin G/H synthase 2 (Homo sapiens) (UniProt P35354); assay: Inhibition of Cyclooxygenase COX-2 at 10.0 µM in the Eurofins Panlabs Safety Screen; conditions: Compound concentration 10.0 uM
[6] = target: 3',5'-cyclic-AMP phosphodiesterase 4D (Homo sapiens) (UniProt Q08499); assay: Inhibition of Phosphodiesterase PDE4D2 at 10.0 µM in the Eurofins Panlabs Safety Screen; conditions: Compound concentration 10.0 uM
[7] = target: Adenosine receptor A2a (Homo sapiens) (UniProt P29274); assay: Inhibition of Adenosine A2A at 10.0 µM in the Eurofins Panlabs Safety Screen; conditions: Compound concentration 10.0 uM
[8] = target: Beta-3 adrenergic receptor (Homo sapiens) (UniProt P13945); assay: Inhibition of Adrenergic beta3 at 10.0 µM in the Eurofins Panlabs Safety Screen; conditions: Compound concentration 10.0 uM
[9] = target: Androgen receptor (Homo sapiens) (UniProt P10275); assay: Inhibition of Androgen (Testosterone) at 10.0 µM in the Eurofins Panlabs Safety Screen; conditions: Compound concentration 10.0 uM
[10] = target: B1 bradykinin receptor (Homo sapiens) (UniProt P46663); assay: Inhibition of Bradykinin B1 at 10.0 µM in the Eurofins Panlabs Safety Screen; conditions: Compound concentration 10.0 uM
[11] = target: B2 bradykinin receptor (Homo sapiens) (UniProt P30411); assay: Inhibition of Bradykinin B2 at 10.0 µM in the Eurofins Panlabs Safety Screen; conditions: Compound concentration 10.0 uM
[12] = target: D(2) dopamine receptor (Homo sapiens) (UniProt P14416); assay: Inhibition of Dopamine D2L at 10.0 µM in the Eurofins Panlabs Safety Screen; conditions: Compound concentration 10.0 uM
[13] = target: Estrogen receptor (Homo sapiens) (UniProt P03372); assay: Inhibition of Estrogen Eralpha at 10.0 µM in the Eurofins Panlabs Safety Screen; conditions: Compound concentration 10.0 uM
[14] = target: GABA-A receptor; anion channel (Rattus norvegicus) (UniProt O09028+P15431+P18506+P18508+P19969+P20236+P23574+P23576+P28471+P28473+P30191+P62813+P63079+P63138+Q91ZM7+Q9ES14); assay: Inhibition of GABAA, Chloride Channel, TBOB at 10.0 µM in the Eurofins Panlabs Safety Screen; format: protein-complex assay; conditions: Compound concentration 10.0 uM
[15] = target: Histamine H1 receptor (Homo sapiens) (UniProt P35367); assay: Inhibition of Histamine H1 at 10.0 µM in the Eurofins Panlabs Safety Screen; conditions: Compound concentration 10.0 uM
Histamine H3 receptor = Histamine H3 receptor (Homo sapiens, UniProt Q9Y5N1); assay: Inhibition of Histamine H3 at 10.0 µM in the Eurofins Panlabs Safety Screen; conditions: Compound concentration 10.0 uM
[16] = target: Insulin receptor (Homo sapiens) (UniProt P06213); assay: Inhibition of Insulin at 10.0 µM in the Eurofins Panlabs Safety Screen; conditions: Rattus norvegicus; Compound concentration 10.0 uM
[17] = target: T2, Muscarinic acetylcholine receptor M2 (Homo sapiens) (UniProt P08172); assay: Inhibition of Muscarinic M2 at 10.0 µM in the Eurofins Panlabs Safety Screen; conditions: Compound concentration 10.0 uM
T2 sequence (whole entry): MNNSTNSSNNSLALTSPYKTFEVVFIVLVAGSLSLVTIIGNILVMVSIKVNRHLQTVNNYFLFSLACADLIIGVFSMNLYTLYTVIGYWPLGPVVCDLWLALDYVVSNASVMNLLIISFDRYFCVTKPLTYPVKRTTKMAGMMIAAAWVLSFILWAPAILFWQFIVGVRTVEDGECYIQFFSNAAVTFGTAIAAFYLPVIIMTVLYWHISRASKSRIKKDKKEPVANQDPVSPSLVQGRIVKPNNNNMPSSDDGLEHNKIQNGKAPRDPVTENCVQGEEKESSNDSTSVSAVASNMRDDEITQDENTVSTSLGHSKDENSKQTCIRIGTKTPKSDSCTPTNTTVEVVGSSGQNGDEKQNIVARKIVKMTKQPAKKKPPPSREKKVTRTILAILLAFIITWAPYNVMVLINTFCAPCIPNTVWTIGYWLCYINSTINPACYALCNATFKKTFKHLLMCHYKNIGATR

[18] = target: Neuronal acetylcholine receptor; alpha3/beta4 (Homo sapiens) (UniProt P30926+P32297); assay: Inhibition of Nicotinic Acetylcholine alpha3beta4 at 10.0 µM in the Eurofins Panlabs Safety Screen; format: protein-complex assay; conditions: Compound concentration 10.0 uM
[19] = target: Kappa-type opioid receptor (Homo sapiens) (UniProt P41145); assay: Inhibition of Opiate kappa(OP2, KOP) at 10.0 µM in the Eurofins Panlabs Safety Screen; conditions: Compound concentration 10.0 uM
[20] = target: Mu-type opioid receptor (Homo sapiens) (UniProt P35372); assay: Inhibition of Opiate µ(OP3, MOP) at 10.0 µM in the Eurofins Panlabs Safety Screen; conditions: Compound concentration 10.0 uM
[21] = target: T3, 5-hydroxytryptamine receptor 1A (Homo sapiens) (UniProt P08908); assay: Inhibition of Serotonin (5-Hydroxytryptamine) 5-HT1A at 10.0 µM in the Eurofins Panlabs Safety Screen; conditions: Compound concentration 10.0 uM
T3 sequence (whole entry): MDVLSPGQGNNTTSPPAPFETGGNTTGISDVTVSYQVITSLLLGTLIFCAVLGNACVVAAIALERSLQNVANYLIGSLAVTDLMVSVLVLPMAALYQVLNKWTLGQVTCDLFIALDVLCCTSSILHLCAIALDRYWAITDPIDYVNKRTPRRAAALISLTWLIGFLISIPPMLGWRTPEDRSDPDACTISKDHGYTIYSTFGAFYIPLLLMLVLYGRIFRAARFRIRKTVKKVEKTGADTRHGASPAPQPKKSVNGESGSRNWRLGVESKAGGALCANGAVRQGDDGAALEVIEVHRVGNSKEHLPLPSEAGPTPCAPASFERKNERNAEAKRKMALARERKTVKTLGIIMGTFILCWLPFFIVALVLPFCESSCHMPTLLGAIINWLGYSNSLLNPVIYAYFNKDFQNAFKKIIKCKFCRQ

[22] = target: 5-hydroxytryptamine receptor 1D (Homo sapiens) (UniProt P28221); conditions: Compound concentration 10.0 uM
[23] = target: Sodium-dependent serotonin transporter (Homo sapiens) (UniProt P31645); conditions: Compound concentration 10.0 uM
[24] = target: Sodium-dependent noradrenaline transporter (Homo sapiens) (UniProt P23975); conditions: Compound concentration 10.0 uM
[25] = target: Kappa-type opioid receptor (Homo sapiens) (UniProt P41145); conditions: Compound concentration 10.0 uM
[26] = target: Histamine H4 receptor (Homo sapiens) (UniProt Q9H3N8); conditions: Compound concentration 10.0 uM
[27] = target: T2, Muscarinic acetylcholine receptor M2 (Homo sapiens); conditions: Compound concentration 10.0 uM
[28] = target: Beta-3 adrenergic receptor (Homo sapiens) (UniProt P13945); conditions: Compound concentration 10.0 uM

Sequence of Sodium-dependent serotonin transporter (Homo sapiens) (P31645 whole entry, looked up): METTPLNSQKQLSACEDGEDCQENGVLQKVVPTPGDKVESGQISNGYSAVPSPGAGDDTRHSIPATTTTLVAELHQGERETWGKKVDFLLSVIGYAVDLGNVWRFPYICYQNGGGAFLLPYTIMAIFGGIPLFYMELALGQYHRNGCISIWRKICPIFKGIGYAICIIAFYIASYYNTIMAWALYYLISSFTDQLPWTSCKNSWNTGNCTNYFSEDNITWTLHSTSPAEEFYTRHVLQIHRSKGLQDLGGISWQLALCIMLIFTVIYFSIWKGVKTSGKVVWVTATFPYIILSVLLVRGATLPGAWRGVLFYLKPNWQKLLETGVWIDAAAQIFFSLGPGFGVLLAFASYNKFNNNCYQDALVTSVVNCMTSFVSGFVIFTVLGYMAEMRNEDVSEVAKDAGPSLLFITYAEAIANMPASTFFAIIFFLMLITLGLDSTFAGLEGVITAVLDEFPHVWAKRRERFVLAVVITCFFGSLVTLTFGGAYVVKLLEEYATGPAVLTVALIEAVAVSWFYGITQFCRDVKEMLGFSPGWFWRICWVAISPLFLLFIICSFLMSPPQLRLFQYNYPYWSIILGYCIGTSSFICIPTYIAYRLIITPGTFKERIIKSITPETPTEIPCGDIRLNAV
Sequence of Beta-3 adrenergic receptor (Homo sapiens) (P13945 whole entry, looked up): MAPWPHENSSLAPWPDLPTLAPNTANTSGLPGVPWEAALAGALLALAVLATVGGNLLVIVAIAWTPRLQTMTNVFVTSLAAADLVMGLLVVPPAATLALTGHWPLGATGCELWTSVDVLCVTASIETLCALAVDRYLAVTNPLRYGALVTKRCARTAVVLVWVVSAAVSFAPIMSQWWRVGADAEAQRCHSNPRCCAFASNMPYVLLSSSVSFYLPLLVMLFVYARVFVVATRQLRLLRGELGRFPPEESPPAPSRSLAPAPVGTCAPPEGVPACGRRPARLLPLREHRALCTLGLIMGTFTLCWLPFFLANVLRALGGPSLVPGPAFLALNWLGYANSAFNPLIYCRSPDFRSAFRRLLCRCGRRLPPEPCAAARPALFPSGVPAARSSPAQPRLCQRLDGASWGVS
Sequence of 5-hydroxytryptamine receptor 1D (Homo sapiens) (P28221 whole entry): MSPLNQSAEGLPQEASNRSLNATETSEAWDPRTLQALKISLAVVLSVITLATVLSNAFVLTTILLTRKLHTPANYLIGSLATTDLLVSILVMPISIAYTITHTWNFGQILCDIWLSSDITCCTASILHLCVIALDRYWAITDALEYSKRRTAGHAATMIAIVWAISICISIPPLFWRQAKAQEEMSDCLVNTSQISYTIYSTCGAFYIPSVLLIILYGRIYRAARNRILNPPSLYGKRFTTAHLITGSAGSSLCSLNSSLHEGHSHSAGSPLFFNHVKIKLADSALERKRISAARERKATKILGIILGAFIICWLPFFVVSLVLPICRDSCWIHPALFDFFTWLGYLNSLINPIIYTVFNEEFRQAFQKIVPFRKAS
Sequence of Histamine H4 receptor (Homo sapiens) (Q9H3N8 whole entry): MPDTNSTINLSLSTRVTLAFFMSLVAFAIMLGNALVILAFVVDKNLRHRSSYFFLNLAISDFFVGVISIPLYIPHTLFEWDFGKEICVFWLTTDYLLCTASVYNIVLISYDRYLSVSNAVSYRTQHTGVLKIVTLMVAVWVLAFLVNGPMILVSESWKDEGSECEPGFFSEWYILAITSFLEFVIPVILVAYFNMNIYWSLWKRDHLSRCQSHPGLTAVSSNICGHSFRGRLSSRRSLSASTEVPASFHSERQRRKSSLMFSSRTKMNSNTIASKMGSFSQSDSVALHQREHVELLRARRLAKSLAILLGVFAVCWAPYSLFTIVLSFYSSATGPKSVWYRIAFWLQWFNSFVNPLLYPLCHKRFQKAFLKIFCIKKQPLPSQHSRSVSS
T1 sequence (P50579 whole entry): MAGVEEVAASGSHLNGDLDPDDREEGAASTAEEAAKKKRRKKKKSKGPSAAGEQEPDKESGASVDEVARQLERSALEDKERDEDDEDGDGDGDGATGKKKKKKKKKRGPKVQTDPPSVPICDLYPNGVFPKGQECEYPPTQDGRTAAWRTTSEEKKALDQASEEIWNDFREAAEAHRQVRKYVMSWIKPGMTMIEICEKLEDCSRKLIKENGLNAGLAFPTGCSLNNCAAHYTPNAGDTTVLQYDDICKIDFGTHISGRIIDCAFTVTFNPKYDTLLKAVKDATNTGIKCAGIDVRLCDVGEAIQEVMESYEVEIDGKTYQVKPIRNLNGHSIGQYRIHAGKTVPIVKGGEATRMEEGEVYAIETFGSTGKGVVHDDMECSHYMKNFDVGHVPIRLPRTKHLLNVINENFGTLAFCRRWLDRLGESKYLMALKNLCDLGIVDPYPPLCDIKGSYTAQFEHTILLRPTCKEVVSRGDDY
Sequence of Kappa-type opioid receptor (Homo sapiens) (P41145 whole entry): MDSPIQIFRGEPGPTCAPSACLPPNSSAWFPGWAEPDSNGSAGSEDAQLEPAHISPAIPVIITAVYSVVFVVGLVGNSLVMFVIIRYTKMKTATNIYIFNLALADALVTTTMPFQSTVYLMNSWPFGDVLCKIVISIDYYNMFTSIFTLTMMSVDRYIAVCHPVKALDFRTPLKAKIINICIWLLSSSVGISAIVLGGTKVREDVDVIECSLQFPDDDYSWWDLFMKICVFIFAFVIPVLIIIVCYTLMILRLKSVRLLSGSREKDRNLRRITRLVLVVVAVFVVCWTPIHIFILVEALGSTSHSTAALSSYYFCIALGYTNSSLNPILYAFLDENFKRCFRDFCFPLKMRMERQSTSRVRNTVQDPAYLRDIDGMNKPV
Sequence of Sodium-dependent noradrenaline transporter (Homo sapiens) (P23975 whole entry): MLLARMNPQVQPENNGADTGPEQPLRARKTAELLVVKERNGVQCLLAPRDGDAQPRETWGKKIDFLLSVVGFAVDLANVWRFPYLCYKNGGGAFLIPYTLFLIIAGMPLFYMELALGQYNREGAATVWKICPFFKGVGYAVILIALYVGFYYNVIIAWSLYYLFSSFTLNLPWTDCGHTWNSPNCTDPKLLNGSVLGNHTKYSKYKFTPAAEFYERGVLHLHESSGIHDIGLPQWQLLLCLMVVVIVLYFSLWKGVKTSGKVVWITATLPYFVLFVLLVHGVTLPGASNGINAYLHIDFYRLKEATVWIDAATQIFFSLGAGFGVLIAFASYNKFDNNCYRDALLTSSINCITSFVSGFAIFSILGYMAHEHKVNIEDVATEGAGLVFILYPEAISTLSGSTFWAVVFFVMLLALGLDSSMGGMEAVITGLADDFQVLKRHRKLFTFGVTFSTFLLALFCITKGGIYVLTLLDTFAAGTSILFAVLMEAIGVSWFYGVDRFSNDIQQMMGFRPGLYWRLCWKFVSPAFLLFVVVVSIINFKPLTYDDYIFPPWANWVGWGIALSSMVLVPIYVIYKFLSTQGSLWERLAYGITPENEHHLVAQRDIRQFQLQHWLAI
Sequence of B2 bradykinin receptor (Homo sapiens) (P30411 whole entry): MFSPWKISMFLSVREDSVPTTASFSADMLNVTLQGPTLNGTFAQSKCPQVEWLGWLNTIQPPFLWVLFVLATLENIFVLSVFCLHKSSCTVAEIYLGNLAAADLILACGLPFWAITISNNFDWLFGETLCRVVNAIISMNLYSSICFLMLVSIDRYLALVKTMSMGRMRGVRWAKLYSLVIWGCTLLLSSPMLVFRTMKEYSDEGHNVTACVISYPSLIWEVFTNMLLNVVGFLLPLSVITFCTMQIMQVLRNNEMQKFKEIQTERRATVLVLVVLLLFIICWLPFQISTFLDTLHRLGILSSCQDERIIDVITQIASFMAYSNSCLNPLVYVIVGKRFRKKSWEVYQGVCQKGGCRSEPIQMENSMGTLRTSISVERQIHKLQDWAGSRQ
Sequence of Serine/threonine-protein kinase haspin (Homo sapiens) (Q8TF76 whole entry): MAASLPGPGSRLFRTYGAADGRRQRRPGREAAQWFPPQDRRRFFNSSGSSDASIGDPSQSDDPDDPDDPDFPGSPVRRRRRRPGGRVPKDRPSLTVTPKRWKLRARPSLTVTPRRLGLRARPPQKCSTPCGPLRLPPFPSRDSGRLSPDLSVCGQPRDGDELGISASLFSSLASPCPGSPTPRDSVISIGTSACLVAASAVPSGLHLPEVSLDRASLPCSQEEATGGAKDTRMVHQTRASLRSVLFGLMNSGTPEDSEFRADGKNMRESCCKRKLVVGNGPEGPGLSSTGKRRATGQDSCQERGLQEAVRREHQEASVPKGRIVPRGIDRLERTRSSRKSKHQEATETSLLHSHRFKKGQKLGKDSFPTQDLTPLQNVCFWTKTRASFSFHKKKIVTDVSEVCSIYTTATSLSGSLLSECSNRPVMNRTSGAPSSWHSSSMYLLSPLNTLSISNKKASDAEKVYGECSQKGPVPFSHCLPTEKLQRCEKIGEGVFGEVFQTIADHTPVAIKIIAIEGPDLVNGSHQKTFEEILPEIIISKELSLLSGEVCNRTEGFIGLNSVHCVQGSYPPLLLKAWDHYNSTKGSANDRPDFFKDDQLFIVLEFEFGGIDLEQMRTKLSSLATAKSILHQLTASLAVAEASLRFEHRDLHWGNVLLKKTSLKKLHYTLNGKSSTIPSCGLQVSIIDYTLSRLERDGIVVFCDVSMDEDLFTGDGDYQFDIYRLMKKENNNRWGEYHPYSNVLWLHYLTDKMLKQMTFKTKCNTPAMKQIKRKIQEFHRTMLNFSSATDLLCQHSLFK
Sequence of Histamine H3 receptor (Q9Y5N1 whole entry): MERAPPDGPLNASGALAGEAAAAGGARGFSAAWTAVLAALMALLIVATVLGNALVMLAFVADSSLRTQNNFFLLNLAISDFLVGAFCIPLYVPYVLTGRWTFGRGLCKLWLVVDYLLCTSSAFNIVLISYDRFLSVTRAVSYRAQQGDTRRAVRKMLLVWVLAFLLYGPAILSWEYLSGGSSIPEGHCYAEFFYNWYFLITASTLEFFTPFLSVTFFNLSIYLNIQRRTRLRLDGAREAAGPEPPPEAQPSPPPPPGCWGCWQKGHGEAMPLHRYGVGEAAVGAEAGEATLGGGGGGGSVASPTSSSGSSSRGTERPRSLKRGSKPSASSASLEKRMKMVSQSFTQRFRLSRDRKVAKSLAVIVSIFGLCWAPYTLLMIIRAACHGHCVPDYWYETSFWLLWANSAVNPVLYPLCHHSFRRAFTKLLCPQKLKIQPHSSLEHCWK

Compound	IC50 [1]	DC50 [2]	inhibition [3] [%]	inhibition [4] [%]	inhibition [5] [%]	inhibition [6] [%]	inhibition [7] [%]	inhibition [8] [%]	inhibition [9] [%]	inhibition [10] [%]	inhibition [11] [%]	inhibition [12] [%]	inhibition [13] [%]	inhibition [14] [%]	inhibition [15] [%]	inhibition (Histamine H3 receptor) [%]	inhibition [16] [%]	inhibition [17] [%]	inhibition [18] [%]	inhibition [19] [%]	also measured
O=C1NCCCC1N1Cc2cc(C3CCN(C(=O)CCCCCN4CCC(c5ccc(Oc6nn7cnnc7c7c6CCCC7)cc5)CC4)CC3)ccc2C1=O (stereo not drawn)	5.7 nM	> 100 nM (not active)	26	10.6	-7	18	6	13	-2	7	13	22	22	-5	22	85	-5	47	6	35	inhibition [20]: 16%; inhibition [21]: 6%; inhibition [22]: 37.4%; inhibition [23]: 9.58%; inhibition [24]: 4.02%; inhibition [25]: 29.3%; inhibition [26]: -3.44%; inhibition [27]: 57.2%; inhibition [28]: 7.19%
O=C1CCC(N2Cc3cc(C4CCN(C(=O)CCCCCN5CCC(c6ccc(Oc7nn8cnnc8c8c7CCCC8)cc6)CC5)CC4)ccc3C2=O)C(=O)N1 (stereo not drawn)	5.8 nM (active)	0.2 nM (active)	28.6	15.4	-6	10	6	16	-6	1	10	22	17	-6	23	81	-7	53	24	18	inhibition [20]: 19%; inhibition [21]: 25%; inhibition [22]: 48.5%; inhibition [23]: 45.8%; inhibition [24]: 11.7%; inhibition [25]: 27.6%; inhibition [26]: -8.84%; inhibition [27]: 64.3%; inhibition [28]: 27.8%

Source: ChEMBL document CHEMBL5463725, “Data for DCP probe BAY-277” (2023)
